Legend:
Assay in all cases: Indoor herbicide activity determination, Seed Treatment; pre-emergence (soil spray)
Assay type in all cases: in vivo
Lolium multiflorum = conditions: Dosage 240 g a.i./ha
Outline: (§1)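 Readout is percent inhibition of fresh weight relative to control plants, determined 21 days after treatment. Soil was sprayed one day after sowing, in a spray tower at 300 mm height and 390 mL/min nozzle flow, onto sandy soil of pH 6.1 with 1% organic matter.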

Alopecurus myosuroides = system: Alopecurus myosuroides
Outline: as §1

Alopecurus japonicus = system: Alopecurus japonicus
Outline: as §1

Digitaria sanguinalis = conditions: read-out: Herbicidal activities (inhibition rate) Digitaria sanguinalis; for inhibition at 120 g/ha: 120 g a.i./ha
Outline: as §1

Eclipta prostrata = conditions: read-out: Herbicidal activities (inhibition rate) Eclipta prostrata; for inhibition at 120 g/ha: 120 g a.i./ha
Outline: as §1

Cyperus iria = conditions: read-out: Herbicidal activities (inhibition rate) Cyperus iria; for inhibition at 120 g/ha: 120 g a.i./ha
Outline: as §1

Leptochloa chinensis = system: Leptochloa chinensis
Outline: as §1

Aegilops tauschii = conditions: read-out: Herbicidal activities (inhibition rate) Aegilops tauschii; for inhibition at 120 g/ha: 120 g a.i./ha
Outline: as §1

Eleusine indica = conditions: Dosage 120 g a.i./ha
Outline: as §1

SMILES | Herbicidal activities, Lolium multiflorum (inhibition rate class) (Lolium multiflorum) | Herbicidal activities, Alopecurus myosuroides (inhibition rate class) (Alopecurus myosuroides; Dosage 240 g a.i./ha) | Herbicidal activities, Alopecurus japonicus (inhibition rate class) (Alopecurus japonicus; Dosage 240 g a.i./ha) | inhibition at 120 g/ha (Digitaria sanguinalis) | inhibition at 120 g/ha (Eclipta prostrata) | inhibition at 120 g/ha (Cyperus iria) | Herbicidal activities, Leptochloa chinensis (inhibition rate class) (Leptochloa chinensis; Dosage 240 g a.i./ha) | inhibition at 120 g/ha (Aegilops tauschii) | Herbicidal activities, Eleusine indica (inhibition rate class) (Eleusine indica) | Herbicidal activities, Alopecurus myosuroides (inhibition rate class) (Alopecurus myosuroides; Dosage 120 g a.i./ha) | Herbicidal activities, Alopecurus japonicus (inhibition rate class) (Alopecurus japonicus; Dosage 120 g a.i./ha) | inhibition at 60 g/ha (Digitaria sanguinalis; 60 g a.i./ha) | inhibition at 60 g/ha (Eclipta prostrata; 60 g a.i./ha) | inhibition at 60 g/ha (Cyperus iria; 60 g a.i./ha) | Herbicidal activities, Leptochloa chinensis (inhibition rate class) (Leptochloa chinensis; Dosage 120 g a.i./ha) | inhibition at 60 g/ha (Aegilops tauschii; 60 g a.i./ha)
COC(=O)[C@H]1C[C@@H](NC(=O)C2(C)CC(c3cc(F)cc(C(F)(F)F)c3)=NO2)CO1 (mixture of isomers) [I-377] | A (A indicates that the inhibition rate was greater than or equal to 80% to 100%) | A (A indicates that the inhibition rate was greater than or equal to 80% to 100%) | A (A indicates that the inhibition rate was greater than or equal to 80% to 100%) | 80 to 100% | 40 to 60% | 60 to 80% | A (A indicates that the inhibition rate was greater than or equal to 80% to 100%) | 80 to 100% | – | – | – | – | – | – | – | –
CC1(C(=O)N[C@H]2CO[C@@H](C(=O)O)C2)CC(c2cc(F)cc(OC(F)(F)F)c2)=NO1 (mixture of isomers) [I-378] | A (A indicates that the inhibition rate was greater than or equal to 80% to 100%) | A (A indicates that the inhibition rate was greater than or equal to 80% to 100%) | A (A indicates that the inhibition rate was greater than or equal to 80% to 100%) | 80 to 100% | 40 to 60% | 60 to 80% | A (A indicates that the inhibition rate was greater than or equal to 80% to 100%) | 80 to 100% | – | – | – | – | – | – | – | –
C#CCOC(=O)[C@H]1C[C@@H](NC(=O)[C@@]2(C(F)(F)F)CC(c3cc(F)cc(OC(F)(F)F)c3)=NO2)C1 [I-255] | – | – | – | – | – | – | – | – | A (A indicates that the inhibition rate was greater than or equal to 80% to 100%) | A (A indicates that the inhibition rate was greater than or equal to 80% to 100%) | A (A indicates that the inhibition rate was greater than or equal to 80% to 100%) | 60 to 80% | 60 to 80% | 80 to 100% | A (A indicates that the inhibition rate was greater than or equal to 80% to 100%) | 80 to 100%
COC(=O)C1CC(NC(=O)C2(C)CC(c3cc(Cl)cc(C(F)(F)F)c3)=NO2)CO1 (stereo not shown) [I-386] | A (A indicates that the inhibition rate was greater than or equal to 80% to 100%) | A (A indicates that the inhibition rate was greater than or equal to 80% to 100%) | A (A indicates that the inhibition rate was greater than or equal to 80% to 100%) | 80 to 100% | 40 to 60% | 60 to 80% | A (A indicates that the inhibition rate was greater than or equal to 80% to 100%) | 80 to 100% | – | – | – | – | – | – | – | –
COC(=O)C1CC(NC(=O)C2(C)CC(c3cc(Cl)cc(OC(F)(F)F)c3)=NO2)CO1 (stereo not shown) [I-387] | A (A indicates that the inhibition rate was greater than or equal to 80% to 100%) | A (A indicates that the inhibition rate was greater than or equal to 80% to 100%) | A (A indicates that the inhibition rate was greater than or equal to 80% to 100%) | 80 to 100% | 60 to 80% | 60 to 80% | A (A indicates that the inhibition rate was greater than or equal to 80% to 100%) | 80 to 100% | – | – | – | – | – | – | – | –
CC1(C(=O)NC2COC(C(=O)O)C2)CC(c2cc(Cl)cc(OC(F)F)c2)=NO1 (stereo not shown) [I-388] | B (B indicates that the inhibition rate was greater than or equal to 60% to less than 80%) | A (A indicates that the inhibition rate was greater than or equal to 80% to 100%) | A (A indicates that the inhibition rate was greater than or equal to 80% to 100%) | 60 to 80% | 60 to 80% | 60 to 80% | A (A indicates that the inhibition rate was greater than or equal to 80% to 100%) | 80 to 100% | – | – | – | – | – | – | – | –
COC(=O)C1CC(NC(=O)C2(C)CC(c3cc(Cl)cc(OC(F)F)c3)=NO2)CO1 (stereo not shown) [I-390] | B (B indicates that the inhibition rate was greater than or equal to 60% to less than 80%) | A (A indicates that the inhibition rate was greater than or equal to 80% to 100%) | A (A indicates that the inhibition rate was greater than or equal to 80% to 100%) | 60 to 80% | 60 to 80% | 60 to 80% | A (A indicates that the inhibition rate was greater than or equal to 80% to 100%) | 80 to 100% | – | – | – | – | – | – | – | –
COC(=O)C1CC(NC(=O)C2(C(F)(F)F)CC(c3cc(F)cc(C(F)(F)F)c3)=NO2)CO1 (stereo not shown) [I-392] | A (A indicates that the inhibition rate was greater than or equal to 80% to 100%) | A (A indicates that the inhibition rate was greater than or equal to 80% to 100%) | A (A indicates that the inhibition rate was greater than or equal to 80% to 100%) | 80 to 100% | 60 to 80% | 60 to 80% | A (A indicates that the inhibition rate was greater than or equal to 80% to 100%) | 80 to 100% | – | – | – | – | – | – | – | –
COC(=O)C1CC(NC(=O)C2(C(F)(F)F)CC(c3cc(F)cc(OC(F)(F)F)c3)=NO2)CO1 (stereo not shown) [I-393] | A (A indicates that the inhibition rate was greater than or equal to 80% to 100%) | A (A indicates that the inhibition rate was greater than or equal to 80% to 100%) | A (A indicates that the inhibition rate was greater than or equal to 80% to 100%) | 60 to 80% | 60 to 80% | 60 to 80% | A (A indicates that the inhibition rate was greater than or equal to 80% to 100%) | 80 to 100% | – | – | – | – | – | – | – | –
COC(=O)C1CC(NC(=O)C2(C(F)(F)F)CC(c3cc(F)cc(OC(F)F)c3)=NO2)CO1 (stereo not shown) [I-394] | A (A indicates that the inhibition rate was greater than or equal to 80% to 100%) | A (A indicates that the inhibition rate was greater than or equal to 80% to 100%) | A (A indicates that the inhibition rate was greater than or equal to 80% to 100%) | 60 to 80% | 60 to 80% | – | A (A indicates that the inhibition rate was greater than or equal to 80% to 100%) | 80 to 100% | – | – | – | – | – | – | – | –
O=C(O)C1CC(NC(=O)C2(C(F)(F)F)CC(c3cc(Cl)cc(OC(F)F)c3)=NO2)CO1 (stereo not shown) [I-395] | A (A indicates that the inhibition rate was greater than or equal to 80% to 100%) | A (A indicates that the inhibition rate was greater than or equal to 80% to 100%) | – | 60 to 80% | 60 to 80% | 60 to 80% | A (A indicates that the inhibition rate was greater than or equal to 80% to 100%) | 60 to 80% | – | – | – | – | – | – | – | –
COC(=O)C1CC(NC(=O)C2(C(F)(F)F)CC(c3cc(Cl)cc(C(F)(F)F)c3)=NO2)CO1 (stereo not shown) [I-399] | B (B indicates that the inhibition rate was greater than or equal to 60% to less than 80%) | A (A indicates that the inhibition rate was greater than or equal to 80% to 100%) | B (B indicates that the inhibition rate was greater than or equal to 60% to less than 80%) | 80 to 100% | 60 to 80% | 60 to 80% | A (A indicates that the inhibition rate was greater than or equal to 80% to 100%) | 80 to 100% | – | – | – | – | – | – | – | –
COC(=O)C1CC(NC(=O)C2(C(F)(F)F)CC(c3cc(Cl)cc(OC(F)(F)F)c3)=NO2)CO1 (stereo not shown) [I-400] | – | A (A indicates that the inhibition rate was greater than or equal to 80% to 100%) | – | 80 to 100% | 80 to 100% | 60 to 80% | A (A indicates that the inhibition rate was greater than or equal to 80% to 100%) | 80 to 100% | – | – | – | – | – | – | – | –

Reference: EP4722201A1, “3-PHENYLISOXAZOLINE-5-CARBOXAMIDE COMPOUND, AND PREPARATION METHOD THEREFOR, HERBICIDAL COMPOSITION THEREOF AND USE THEREOF” (Jiangsu Flag Chemical Industry Co., Ltd, priority 2023, dated 2024)
